The text below walks through data of patent publication US8044067B2, “Isoquinolines as IGF-1R inhibitors” (Analytecon S.A., priority 2005, dated 2011).

Data set [1] deals with insulin receptor substrate 1 (IRS-1). The data set is described as follows: Inhibition of the phosphorylation of insulin receptor substrate 1 (IRS-1) in MF-55 cells. Format: cell-based. The conditions noted are these: MF-55 cells (malignant melanoma), 100 ng/ml for one hour, IGF-1 50 ng/ml for 5 minutes. The method, then:
MF-55 cells (malignant melanoma) were starved for 20 hours, after which half of the cell mass was incubated with racemic compound 15 (100 ng/ml) for one hour. After activation with IGF-1 (50 ng/ml) for 5 minutes, the two cell samples were lyzed in a special buffer (Upstate Ltd., Dundee, UK) that disrupts the cell membrane as well as the nucleus envelope. After removal of cell debris by centrifugation, the supernatants were analyzed for phosphorylated IRS-1 by Upstate Ltd. The presence of racemic compound 15 lowered the amount of phosphorylated IRS-1 with 20% compared to control. By blocking the function of the IGF-1 receptor, the phosphorylation of the insulin receptor substrate 1 is inhibited.

In data set [2] the target is T1, IGF-1 receptor (Homo sapiens, UniProt P08069).
T1 construct: endogenous in cells; host or cells: MCF-7
T1 sequence (P08069 741-1367 limits assumed): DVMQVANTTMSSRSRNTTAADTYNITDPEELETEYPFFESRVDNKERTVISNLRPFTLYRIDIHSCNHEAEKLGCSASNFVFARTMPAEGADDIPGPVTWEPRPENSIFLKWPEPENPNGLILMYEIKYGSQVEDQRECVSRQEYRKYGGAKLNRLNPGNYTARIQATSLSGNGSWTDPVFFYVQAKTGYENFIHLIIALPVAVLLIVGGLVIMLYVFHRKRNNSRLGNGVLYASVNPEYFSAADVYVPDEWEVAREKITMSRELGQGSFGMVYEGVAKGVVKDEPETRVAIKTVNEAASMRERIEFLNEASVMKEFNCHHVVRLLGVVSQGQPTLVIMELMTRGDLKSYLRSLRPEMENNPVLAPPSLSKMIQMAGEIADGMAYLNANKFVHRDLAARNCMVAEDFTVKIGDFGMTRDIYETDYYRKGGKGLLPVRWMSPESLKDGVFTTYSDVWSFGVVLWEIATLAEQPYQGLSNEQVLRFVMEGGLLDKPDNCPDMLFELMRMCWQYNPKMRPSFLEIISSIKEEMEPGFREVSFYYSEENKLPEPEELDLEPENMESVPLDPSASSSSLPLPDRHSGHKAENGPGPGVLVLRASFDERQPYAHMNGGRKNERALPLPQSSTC
T1 sequence (P08069 31-736 limits assumed): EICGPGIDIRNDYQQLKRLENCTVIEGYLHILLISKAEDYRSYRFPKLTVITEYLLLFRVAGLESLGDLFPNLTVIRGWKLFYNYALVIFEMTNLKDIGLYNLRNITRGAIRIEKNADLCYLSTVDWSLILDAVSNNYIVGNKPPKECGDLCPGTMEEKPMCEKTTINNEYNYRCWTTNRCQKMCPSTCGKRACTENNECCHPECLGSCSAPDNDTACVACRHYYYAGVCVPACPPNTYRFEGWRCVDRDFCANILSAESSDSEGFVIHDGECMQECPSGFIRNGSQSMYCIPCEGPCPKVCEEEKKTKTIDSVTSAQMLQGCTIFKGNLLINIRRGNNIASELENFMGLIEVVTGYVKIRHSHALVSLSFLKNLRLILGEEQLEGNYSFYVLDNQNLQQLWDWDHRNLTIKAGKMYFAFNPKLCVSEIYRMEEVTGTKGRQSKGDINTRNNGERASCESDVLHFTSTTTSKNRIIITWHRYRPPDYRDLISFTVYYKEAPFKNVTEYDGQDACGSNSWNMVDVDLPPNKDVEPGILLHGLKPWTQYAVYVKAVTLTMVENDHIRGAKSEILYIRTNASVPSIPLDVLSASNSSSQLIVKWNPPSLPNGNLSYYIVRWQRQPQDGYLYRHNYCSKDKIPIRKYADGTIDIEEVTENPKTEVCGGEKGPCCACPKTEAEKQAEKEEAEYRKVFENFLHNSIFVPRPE
The data set is described as follows: Inhibition of the phosphorylation of the IGF-1 receptor in MCF-7 cells (immunoblotting for phospho-IGF-1R Y1135/1136). Format: cell-based. The conditions noted are these: MCF-7 cells serum starved 20 hours, treated 3 hours, stimulated with 10 nM IGF-1 for 5 minutes. The method, then:
MCF-7 cells were serum starved for 20 hours, treated with compound 15 for 3 hours and finally stimulated with 10 nM IGF-1 for 5 minutes. The cells were lyzed and the lysates analysed by SDS-PAGE and immunoblotting for phospho-IGF-1R is (Y1135/1136).

Data set [3] concerns MAPK (Erk1/2). Kind of data set: Inhibition of the phosphorylation of MAPK in DU-145 cells (immunoblotting for phospho-MAPK). Format: cell-based. The following applies: DU-145 cells (prostate cancer), incubated over night in serum free medium, IGF1 50 nM for 15 minutes. The method, then:
DU-145 cells (prostate cancer) were incubated over night with compound 15 in serum free medium. After stimulation for 15 minutes with IGF1 (50 nM), the cells were lyzed and the lysates analysed by immunoblotting for phospho-MAPK.

With `COc1cc(C2C(=O)N(C)Cc3cc4c(cc32)OCCO4)cc(OC)c1OC` (stereo not shown) [Compound 9, 2-methyl-4-(3,4,5-trimethoxyphenyl)-6,7-ethylenedioxy-1,4-dihydro-3(2H)-isoquinolinone], the melting point is 148 to 149 °C.

As to `COc1ccc2c(c1)CN(N)C(=O)C2c1cc(OC)c(OC)c(OC)c1.Cl` (stereo not shown), the melting point was in the range of 164 to 167 °C.

In turn, `COc1cc(OC)cc(C2C(=O)N(C)Cc3cc(OC)ccc32)c1` (stereo not shown) [Compound 13, 2-methyl-4-(3,5-dimethoxyphenyl)-7-methoxy-1,4-dihydro-3(2H)-isoquinolinone] showed a melting point of 137 to 139 °C.

For the molecule `COc1ccc2c(c1O)CN(C)C(=O)C2c1cc(OC)c(OC)c(OC)c1` (racemic) [racemic compound 15, 2-methyl-4-(3,4,5-trimethoxyphenyl)-8-hydroxy-7-methoxy-1,4-dihydro-3(2H)-isoquinolinone], the “lowering of the amount of phosphorylated IRS-1 compared to control” value in data set [1] was found to be 20%.

As for `COc1ccc2c(c1O)CN(C)C(=O)C2c1cc(OC)c(OC)c(OC)c1` (single isomer, unassigned; (+)) [Compound 15, (+)-2-methyl-4-(3,4,5-trimethoxyphenyl)-8-hydroxy-7-methoxy-1,4-dihydro-3(2H)-isoquinolinone], the IC50 was approximately 1000 nM in data set [2] and approximately 300 nM in data set [3].

`COc1cc([C@@H]2c3cc4c(cc3[C@H](O)[C@H]3COC(=O)[C@@H]23)OCO4)cc(OC)c1OC` [Picropodophyllin, reference compound]: the IC50 in data set [3] is approximately 5000 nM.
